Earlier results as cited in patent publication US20070003591A1, “USE OF A PROPOLIS AS A COATING MATERIAL FOR MEDICAL IMPLANTS” (priority 2005, published 2007).

Tests used:
[1] = test system: transcription factor FKB in T cells; conditions: Márquez et al. 2004
[2] = test system: transcription factor FKB in human breast cancer cells of the type MCF-7; conditions: MCF-7 cells; Watabe et al. 2004

O=C(/C=C/c1ccc(O)c(O)c1)OCCc1ccccc1 [caffeic acid phenylethyl ester]
inhibitor of the transcription factor FKB [1]: inhibitor
inhibitor of the transcription factor FKB [2]: inhibitor
